From patent US20140004062A1, “COMPOSITION INCLUDING 3-BROMO-4,5-DIHYDROXYBENZALDEHYDE COMPOUND AS EFFECTIVE COMPONENT FOR PROTECTING AND TREATING SKIN CELL AGANIST ULTRAVIOLET” (Jeju National University Industry-Academic Cooperation …, priority 2012, published 2014)

Columns and labels:
HaCaT cells [1] = assay: Lipid peroxidation, DPPP fluorescent probe; assay type: cell-based, human; details: UVB-irradiated cells treated with BDB
Description: (§1) A cell was exposed to UVB, and then after 24 hours, effects of BDB in inhibiting the cell membrane lipid peroxidation, a protein modification, and a cell DNA damage of UVB-irradiated cell was observed. Lipid peroxidation was assayed by the determination of 8-isoprostane levels in the culture medium. A commercial enzyme immunoassay (Cayman Chemical, Ann Arbor, Mich., USA) was employed according to the manufacturer's instructions. Lipid peroxidation was also estimated using a fluorescent probe, DPPP. Cells were incubated with 5 μM DPPP for 15 min in the dark and then exposed to UVB. DPPP fluorescence image was captured using a Zeiss Axiovert 200 inverted microscope at an excitation wavelength of 351 nm and an emission wavelength of 380 nm and quantified.

HaCaT cells [2] = assay: MTT assay, viability of UVB-exposed HaCaT cells; assay type: cell-based; details: Homo sapiens, light or radiation study, UVB 1 h later, 24 h, untreated UVB cells 65%, read-out: viability of the cell exposed to UVB
Description: (§2) Human keratinocytes (HaCaT cells) were obtained from the Amore Pacific Company (Gyeonggi-do, Republic of Korea). Cells were maintained at 37° C. in an incubator with a humidified atmosphere of 5% CO2. Cells were cultured in Dulbecco's modified Eagle's medium containing 10% heat-inactivated fetal calf serum, streptomycin (100 μg/mL) and penicillin (100 unit/mL).
(§3) The effect of BDB on the viability of HaCaT cells was assessed as follows. Cells were seeded in a 96-well plate at a density of 1×10^5 cells/mL. Sixteen hours after plating, BDB was added at a concentration of at 10, 20, 30, 40, and 50 μM. To evaluate the ability of BDB to protect keratinocytes against UVB-exposure, BDB was added at a concentration of 10, and 30 μM, and cells were exposed to UVB radiation one hour later and incubated at 37° C. for 24 h. Fifty microliter of MTT stock solution (2 mg/mL) was added to each well to yield a total reaction volume of 200 μl. After incubating the cells for 4 h, the plate was centrifuged at 800×g for 5 min, and the supernatants were aspirated. The formazan crystals in each well were dissolved in dimethylsulfoxide (150 μl), and the absorbance at 540 nm was read on a scanning multi-well spectrophotometer.

[3] = Detection of superoxide anion, xanthine/xanthine oxidase system, ESR spectrometry; assay type: physicochemical; details: BDB 30 μM; signal without BDB 2765
Description: The superoxide anion was produced via the xanthine/xanthine oxidase system and then reacted with a nitrone spin trap, DMPO. The DMPO/.OOH adducts were detected using a JES-FA electron spin resonance (ESR) spectrometer (JEOL, Tokyo, Japan). Briefly, ESR signaling was recorded 5 min after 20 μl of xanthine oxidase (0.25 U/mL) was mixed with 20 μl each of xanthine (5 mM), DMPO (1.5 M) and BDB (30 μM). The ESR spectrometer parameters were set at a magnetic field of 336 mT, power of 1.00 mW, frequency of 9.4380 GHz, modulation amplitude of 0.2 mT, gain of 500, scan time of 0.5 min, scan width of 10 mT, time constant of 0.03 sec, and temperature of 25° C.

HaCaT cells [4] = assay: Nuclear staining with Hoechst 33342, apoptotic bodies; assay type: cell-based, human; details: BDB 30 μM, UVB 1 h later, 24 h; UVB alone 16
Description: Cells were treated with BDB at a concentration of 30 μM and exposed to UVB radiation 1 h later. Cells were incubated for an additional 24 h at 37° C. Hoechst 33342 (1.5 μL of a 10 mg/mL stock), a DNA-specific fluorescent dye, was added to each well, and the cells were incubated for 10 min at 37° C. The stained cells were visualized under a fluorescence microscope equipped with a CoolSNAP-Pro color digital camera. The degree of nuclear condensation was evaluated, and the apoptotic cells were quantified.

HaCaT cells [5] = assay: Protein carbonyl formation ELISA; assay type: cell-based, human; details: UVB-irradiated cells treated with BDB
Description: The amount of carbonyl formation in protein was determined using an Oxiselect™ protein carbonyl ELISA kit purchased from Cell Biolabs (San Diego, Calif., USA) according to the manufacturer's instructions.

HaCaT cells [6] = assay: MTT assay, viability of HaCaT cells treated with BDB; assay type: cell-based, human; details: up to the concentration of 30 μM; tested at 10-50 μM
Description: as §2, §3

HaCaT cells [7] = assay: Comet assay, oxidative DNA damage; assay type: cell-based, human; details: UVB-exposed cells treated with BDB; UVB alone 37%
Description: The degree of oxidative DNA damage was determined in a comet assay. Cell suspension was mixed with 75 μL of 0.5% low melting agarose (LMA) at 39° C. and the mixture was spread on a fully frosted microscopic slide pre-coated with 200 μL of 1% normal melting agarose (NMA). After solidification of the agarose, the slide was covered with another 75 μl of 0.5% LMA and then immersed in a lysis solution (2.5 M NaCl, 100 mM Na-EDTA, 10 mM Tris, 1% Trion X-100 and 10% DMSO, pH 10) for 1 h at 4° C. The slides were then placed in a gel-electrophoresis apparatus containing 300 mM NaOH and 10 mM Na-EDTA (pH 13) for 40 min to allow for DNA unwinding and the expression of the alkali-labile damage. An electrical field was then applied (300 mA, 25 V) for 20 min at 4° C. to draw the negatively charged DNA towards the anode. The slides were washed three times for 5 min at 4° C. in a neutralizing buffer (0.4 M Tris, pH 7.5), stained with 75 μL of propidium iodide (20 μg/mL) and observed using a fluorescence microscope and an image analyzer (Kinetic Imaging, Komet 5.5, UK). The percentage of total fluorescence in the DNA tails and the tail length of 50 cells per slide were recorded.

[8] = tested on: infectious pancreatic necrosis virus; details: cited from earlier work
HaCaT cells [9] = assay: Sub-G1 hypodiploid cells, flow cytometry; assay type: cell-based, human; details: BDB 30 μM, UVB 1 h later, 24 h; UVB alone 17%, no UVB 1%
Description: Flow cytometry was performed in order to determine the apoptotic sub-G1 hypodiploid cells. Cells were treated with BDB at a concentration of 30 μM and exposed to UVB radiation 1 h later. Cells were incubated for an additional 24 h at 37° C. Cells were harvested, and fixed in 1 mL of 70% ethanol for 30 min at 4° C. Cells were washed twice with PBS, and then incubated for 30 min in the dark at 37° C. in 1 mL of PBS containing 100 μg propidium iodide and 100 μg RNase A. Flow cytometric analysis was performed using a FACS Calibur flow cytometer (Becton Dickinson, Mountain View, Calif., USA). Sub-G1 hypodiploid cells were assessed based on the histograms generated using the computer programs, Cell Quest and Mod-Fit.

HaCaT cells [10] = assay: Lipid peroxidation, 8-isoprostane enzyme immunoassay; assay type: cell-based, human; details: UVB-exposed cells treated with BDB, 24 h; UVB alone 3.1 pg/mg
Description: as §1

[11] = DPPH radical removal ability; assay type: physicochemical; details: 3 h
Description: BDB at a concentration of 10, 20, 30 μM and 2 mM NAC were added to a 1×10^−4 M solution of DPPH in methanol. The resulting reaction mixture was shaken vigorously. After 3 h, the amount of unreacted DPPH was measured at 520 nm using a spectrophotometer.

HaCaT keratinocytes [12] = assay: Intracellular ROS induced by UVB, DCF-DA method; assay type: cell-based, human; details: UVB 30 mJ/cm^2, 24 h
Description: (§4) The DCF-DA method was used to detect intracellular ROS levels in HaCaT keratinocytes generated by either H2O2 or UVB radiation. For the detection of ROS in H2O2-treated cells, cells were seeded at a density of 1.5×10^5 cells/well. Sixteen hours after plating, cells were treated with BDB at a concentration of 10, 20, 30 μM and 2 mM NAC. After 30 min, H2O2 (1 mM) was added to the plate. Cells were incubated for an additional 30 min at 37° C., and DCF-DA solution (25 μM) was then added. Ten minutes after the addition of DCF-DA, the fluorescence of 2′,7′-dichlorofluorescein (DCF) was detected and quantified using a PerkinElmer LS-5B spectrofluorometer (PerkinElmer, Waltham, Mass., USA). For the detection of ROS in UVB-exposed cells, cells were treated with BDB as above. After one hour, cells were exposed to UVB radiation at a dose of 30 mJ/cm^2. […] Cells were incubated for an additional 24 h at 37° C., DCF-DA solution (25 μM) was added and detected as above.

HaCaT cells [13] = assay: Cytoplasmic histone-associated DNA fragmentation kit; assay type: cell-based, human; details: UVB-irradiated cells treated with BDB
Description: Cellular DNA fragmentation was assessed by analyzing the extent of cytoplasmic histone-associated DNA fragmentation using a kit from Roche Diagnostics (Portland, Oreg., USA) according to the manufacturer's instructions. A cytoplasmic histone-associated DNA fragmentation was increased in UVB-irradiated cells as compared with control cells. The level of DNA fragmentation was decreased in UVB-irradiated cells that were treated with BDB (see FIG. 4c).

HaCaT keratinocytes [14] = assay: Intracellular ROS induced by H2O2, DCF-DA method; assay type: cell-based, human; details: H2O2 1 mM
Description: as §4

[15] = Detection of hydroxyl radical, Fenton reaction, ESR spectrometry; assay type: physicochemical; details: BDB 30 μM; signal without BDB 3851
Description: The hydroxyl radical was generated by the Fenton reaction (H2O2+FeSO4) and then reacted with DMPO. The resultant DMPO/.OH adducts were detected using an ESR spectrometer. The ESR spectrum was recorded 2.5 min after a phosphate buffer solution (pH 7.4) was mixed with 0.2 mL each of 0.3 M DMPO, 10 mM FeSO4, 10 mM H2O2, and BDB (30 μM). The ESR spectrometer parameters were set at a magnetic field of 336 mT, power of 1.00 mW, frequency of 9.4380 GHz, modulation amplitude of 0.2 mT, gain of 200, scan time of 0.5 min, scan width of 10 mT, time constant of 0.03 sec, and temperature of 25° C.

[16] = UVB absorption analysis, ultraviolet/visible spectrophotometer; assay type: physicochemical
Description: To study the UVB absorption spectra of BDB, which was diluted in DMSO at a ratio 1:500 (v/v), it was scanned by UV at 200-500 nm using Biochrom Libra S22 ultraviolet/visible spectrophotometer.

[17] = tested on: hematopoietic necrosis virus; details: cited from earlier work
[18] = UV/visible scan 200 nm to 500 nm

With `O=Cc1cc(O)c(O)c(Br)c1` [BDB, 3-Bromo-4,5-dihydroxybenzaldehyde] the “DPPP fluorescence (lipid peroxidation)” value (HaCaT cells [1]) was “exhibited the fluorescence in the more small range”, the viability at 10 µM (HaCaT cells [2]; BDB 10 μM) was 73% and the viability at 20 µM (HaCaT cells [2]; BDB 20 μM) was 73%. The viability at 30 µM (HaCaT cells [2]; BDB 30 μM) was 77%, the “superoxide anion signal (ESR, DMPO/.OOH adducts)” value [3] was 2063 and the “Apoptotic Index (nuclear segments, Hoechst 33342)” value (HaCaT cells [4]) was 9. For the same compound, the “carbonyl formation induced by UVB (protein carbonyl level)” value (HaCaT cells [5]) was “inhibited”, the “toxicity on human HaCaT keratinocyte (cell viability, MTT)” value (HaCaT cells [6]) was “does not exhibit toxicity” and the “ratio of DNA in the tail (comet assay)” value (HaCaT cells [7]) was 18%. For the same compound, the antiviral effect [8] was “antiviral effect”, the “apoptotic sub-G1 DNA” value (HaCaT cells [9]) was 8% and the “8-isoprostane level (lipid peroxidation)” value (HaCaT cells [10]) was 1.9 pg/mg. For the same compound, the DPPH radical scavenged ([11]; 10 μM, 1×10^−4 M DPPH in methanol) was 6%, the DPPH radical scavenged ([11]; 20 μM, 1×10^−4 M DPPH in methanol) was 21% and the DPPH radical scavenged ([11]; 30 μM, 1×10^−4 M DPPH in methanol) was 25%. The “intracellular ROS induced by UVB removed” value (HaCaT keratinocytes [12]; 10 μM) was 17%, the “intracellular ROS induced by UVB removed” value (HaCaT keratinocytes [12]; 20 μM) was 22% and the “intracellular ROS induced by UVB removed” value (HaCaT keratinocytes [12]; 30 μM) was 23%. The “level of cytoplasmic histone-associated DNA fragmentation” value (HaCaT cells [13]) was “decreased”, the “intracellular ROS induced by H2O2 removed” value (HaCaT keratinocytes [14]; 10 μM) was 64% and the “intracellular ROS induced by H2O2 removed” value (HaCaT keratinocytes [14]; 20 μM) was 67%. The “intracellular ROS induced by H2O2 removed” value (HaCaT keratinocytes [14]; 30 μM) was 70%, the “hydroxyl radical signal (ESR, DMPO/.OH adducts)” value [15] was 3002 and the “absorption peak 1 position” value [16, 18] was 288 nm. For the same compound, the “absorption peak 2 position” value [16, 18] was 357 nm, the UVB absorption ability ([16]; diluted in DMSO 1:500 (v/v), scanned at 200-500 nm) was “exhibited the absorption ability at 280 to 320 nm” and the antiviral effect [17] was “antiviral effect”.
For `CC(=O)N[C@@H](CS)C(=O)O` [NAC, N-acetyl cysteine, reference compound], the DPPH radical scavenged ([11]; 2 mM, positive control) was 89%, the “intracellular ROS induced by UVB removed” value (HaCaT keratinocytes [12]; 2 mM) was 22% and the “intracellular ROS induced by H2O2 removed” value (HaCaT keratinocytes [14]; 2 mM) was 80%.
